Source: US6828320B2, “Heterocyclic compounds” (SmithKline Beecham Corporation, priority 1996, dated 2004)
Structures can show the parent of a compound that is named as a salt. Where two headings read alike, the source gives them in different places.

Key:
[1] = target: T1, c-erbB-4 (baculovirus expressed, recombinant intracellular domain) (Homo sapiens, UniProt Q15303); assay: Substrate phosphorylation assay, c-erbB-4; assay type: biochemical
T1 construct: baculovirus expressed, recombinant constructs of the intracellular domains of c-erbB-2 and c-erbB-4; made in house
Procedure: (§1) The substrate phosphorylation assays use baculovirus expressed, recombinant constructs of the intracellular domains of c-erbB-2 and c-erbB-4 that are constitutively active and EGFr isolated from solubilised A431 cell membranes. The method measures the ability of the isolated enzymes to catalyse the transfer of the γ-phosphate from ATP onto tyrosine residues in a biotinylated synthetic peptide (Biotin-[…]. […] The reaction is stopped by the addition of EDTA (final concentration 0.15 mM) and a sample is transferred to a streptavidin-coated 96-well plate. The plate is washed and level of phosphotyrosine on the peptide is determined using a Europium-labelled antiphosphotyrosine antibody and quantified with a time-resolved fluorescence technique.

[2] = tested on: HB4a cell line transfected with ras; assay: Cell proliferation assay, HB4a ras; assay type: cell-based, human; conditions: Homo sapiens, HB4a, 96 h; 4 days at 37° C., methylene blue staining; general toxicity control; read-out: Cell Proliferation HB4a ras
[3] = tested on: HN5-head and neck tumour cell line; assay: Cell proliferation assay, HN5; assay type: cell-based, human; conditions: Homo sapiens, 96 h; same methodology, 4 days
Procedure: (§2) The cell proliferation assay uses an immortalised human breast epithelial cell line (HB4a) which has been transformed by over-expression of c-erbB-2. Growth of these cells in low serum is dependent upon the c-erbB-2 tyrosine kinase activity. The specificity of the effect of the test compounds on tyrosine kinase dependent growth over general toxicity is assessed by comparison to an HB4a cell line which has been transfected with ras. Cells are plated at 3000/ well in 96-well plates in 0.1 ml medium and allowed to attach overnight. test compound is added in 0.1 ml medium, with a final concentration of 0.5% DMSO, and the plates incubated for 4 days at 37° C. The cells are then examined microscopically for evidence of morphological detransformation and cell mass is estimated by staining with methylene blue and measuring the absorbance at 620 nm. The results are shown in Table 1 below as the IC50 values in nM. Activity against a range of naturally occurring EGFr or c-erbB-2 over-expressing human tumour cell lines (BT474-breast, HN5-head and neck, N87-gastric and Calu3-lung) is assessed with selected compounds by the same methodology. The results are also shown in Table 1 below as the IC50 values in nM.

[4] = target: T2, c-erbB-2 (baculovirus expressed, recombinant intracellular domain) (Homo sapiens, UniProt P04626); assay: Substrate phosphorylation assay, c-erbB-2; assay type: biochemical; conditions: read-out: Substrate Phosphorylation erbB-2
T2 construct: baculovirus expressed, recombinant constructs of the intracellular domains of c-erbB-2 and c-erbB-4; made in house
Procedure: as §1

[5] = tested on: N87-gastric tumour cell line; assay: Cell proliferation assay, N87; assay type: cell-based, human; conditions: Homo sapiens, 96 h; same methodology, 4 days
Procedure: as §2

[6] = target: HB4a cell line transformed by over-expression of c-erbB-2 (Homo sapiens, UniProt P04626); assay: Cell proliferation assay, HB4a erbB-2; assay type: cell-based; conditions: 4 days at 37° C., methylene blue staining; read-out: Cell Proliferation HB4a erbB-2
Procedure: as §2, with “The specificity of the effect of the test compounds on tyrosine kinase dependent growth over general toxicity is assessed by comparison to an HB4a cell line which has been transfected with ras.” left out, “The results are shown in Table 1 below as the IC50 values in nM.” left out, “methodology.” for “methodology. The results are also shown in Table 1 below as the IC50 values in nM.”

[7] = tested on: Calu3-lung tumour cell line; assay: Cell proliferation assay, Calu3; assay type: cell-based, human; conditions: Homo sapiens, Calu-3, 96 h; same methodology, 4 days
Procedure: as §2

[8] = tested on: BT474-breast tumour cell line; assay: Cell proliferation assay, BT474; assay type: cell-based, human; conditions: Homo sapiens, BT-474, 96 h; same methodology, 4 days
Procedure: as §2

[9] = target: T3, EGFr isolated from solubilised A431 cell membranes (Homo sapiens, UniProt P00533); assay: Substrate phosphorylation assay, EGFr; assay type: biochemical
T3 construct: EGFr isolated from solubilised A431 cell membranes; endogenous in cells; host or cells: A431 cell membranes (solubilised)
Procedure: as §1

[10] = 30 minutes, room temperature, ATP and peptide at Km concentrations

T3 sequence (P00533 25-1210): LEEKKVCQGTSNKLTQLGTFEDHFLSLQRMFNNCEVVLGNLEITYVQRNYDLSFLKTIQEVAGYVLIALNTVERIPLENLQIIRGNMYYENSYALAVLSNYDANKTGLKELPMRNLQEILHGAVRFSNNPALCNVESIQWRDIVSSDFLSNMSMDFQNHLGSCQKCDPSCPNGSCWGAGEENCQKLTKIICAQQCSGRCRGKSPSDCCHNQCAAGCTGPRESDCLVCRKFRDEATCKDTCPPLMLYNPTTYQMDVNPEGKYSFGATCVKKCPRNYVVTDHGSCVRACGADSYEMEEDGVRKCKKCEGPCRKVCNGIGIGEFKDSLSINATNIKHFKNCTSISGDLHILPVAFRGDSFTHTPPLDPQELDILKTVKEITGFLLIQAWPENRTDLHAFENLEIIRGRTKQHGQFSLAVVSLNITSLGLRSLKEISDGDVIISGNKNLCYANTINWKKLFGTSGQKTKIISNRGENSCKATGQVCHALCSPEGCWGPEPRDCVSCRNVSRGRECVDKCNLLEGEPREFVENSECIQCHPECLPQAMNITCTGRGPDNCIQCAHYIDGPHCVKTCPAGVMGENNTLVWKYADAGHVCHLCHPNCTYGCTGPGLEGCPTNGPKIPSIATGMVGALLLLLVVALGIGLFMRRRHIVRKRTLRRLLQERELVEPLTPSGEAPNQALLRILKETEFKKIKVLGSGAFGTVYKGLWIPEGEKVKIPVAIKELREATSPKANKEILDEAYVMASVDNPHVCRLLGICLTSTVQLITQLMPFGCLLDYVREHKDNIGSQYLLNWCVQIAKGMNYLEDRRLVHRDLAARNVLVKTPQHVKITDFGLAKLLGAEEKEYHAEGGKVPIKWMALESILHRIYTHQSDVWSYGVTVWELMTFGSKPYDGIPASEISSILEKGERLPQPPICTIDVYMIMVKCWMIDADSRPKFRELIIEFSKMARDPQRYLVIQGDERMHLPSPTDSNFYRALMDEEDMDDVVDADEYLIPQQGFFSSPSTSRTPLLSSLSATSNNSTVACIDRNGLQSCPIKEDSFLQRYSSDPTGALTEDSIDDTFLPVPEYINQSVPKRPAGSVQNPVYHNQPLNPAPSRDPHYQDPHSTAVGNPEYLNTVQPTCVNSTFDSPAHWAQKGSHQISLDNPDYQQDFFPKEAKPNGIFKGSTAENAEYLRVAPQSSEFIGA
T2 sequence (P04626 676-1255 limits assumed): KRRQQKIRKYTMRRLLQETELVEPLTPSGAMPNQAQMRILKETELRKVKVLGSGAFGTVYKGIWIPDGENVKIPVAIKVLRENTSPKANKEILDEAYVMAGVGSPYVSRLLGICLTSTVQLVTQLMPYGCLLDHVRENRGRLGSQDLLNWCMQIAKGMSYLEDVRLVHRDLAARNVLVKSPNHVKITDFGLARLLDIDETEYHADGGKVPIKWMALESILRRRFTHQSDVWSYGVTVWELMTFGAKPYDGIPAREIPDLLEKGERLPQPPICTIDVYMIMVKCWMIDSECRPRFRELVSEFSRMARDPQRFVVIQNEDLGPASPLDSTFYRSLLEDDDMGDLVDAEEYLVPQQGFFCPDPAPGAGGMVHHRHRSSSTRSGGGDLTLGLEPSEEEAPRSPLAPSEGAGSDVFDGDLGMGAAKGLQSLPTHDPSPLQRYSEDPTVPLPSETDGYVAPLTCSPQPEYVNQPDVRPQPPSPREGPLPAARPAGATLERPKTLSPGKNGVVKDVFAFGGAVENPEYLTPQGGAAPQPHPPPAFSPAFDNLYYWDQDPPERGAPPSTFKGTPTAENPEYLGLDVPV
Sequence of HB4a cell line transformed by over-expression of c-erbB-2 (P04626 whole entry, change not shown): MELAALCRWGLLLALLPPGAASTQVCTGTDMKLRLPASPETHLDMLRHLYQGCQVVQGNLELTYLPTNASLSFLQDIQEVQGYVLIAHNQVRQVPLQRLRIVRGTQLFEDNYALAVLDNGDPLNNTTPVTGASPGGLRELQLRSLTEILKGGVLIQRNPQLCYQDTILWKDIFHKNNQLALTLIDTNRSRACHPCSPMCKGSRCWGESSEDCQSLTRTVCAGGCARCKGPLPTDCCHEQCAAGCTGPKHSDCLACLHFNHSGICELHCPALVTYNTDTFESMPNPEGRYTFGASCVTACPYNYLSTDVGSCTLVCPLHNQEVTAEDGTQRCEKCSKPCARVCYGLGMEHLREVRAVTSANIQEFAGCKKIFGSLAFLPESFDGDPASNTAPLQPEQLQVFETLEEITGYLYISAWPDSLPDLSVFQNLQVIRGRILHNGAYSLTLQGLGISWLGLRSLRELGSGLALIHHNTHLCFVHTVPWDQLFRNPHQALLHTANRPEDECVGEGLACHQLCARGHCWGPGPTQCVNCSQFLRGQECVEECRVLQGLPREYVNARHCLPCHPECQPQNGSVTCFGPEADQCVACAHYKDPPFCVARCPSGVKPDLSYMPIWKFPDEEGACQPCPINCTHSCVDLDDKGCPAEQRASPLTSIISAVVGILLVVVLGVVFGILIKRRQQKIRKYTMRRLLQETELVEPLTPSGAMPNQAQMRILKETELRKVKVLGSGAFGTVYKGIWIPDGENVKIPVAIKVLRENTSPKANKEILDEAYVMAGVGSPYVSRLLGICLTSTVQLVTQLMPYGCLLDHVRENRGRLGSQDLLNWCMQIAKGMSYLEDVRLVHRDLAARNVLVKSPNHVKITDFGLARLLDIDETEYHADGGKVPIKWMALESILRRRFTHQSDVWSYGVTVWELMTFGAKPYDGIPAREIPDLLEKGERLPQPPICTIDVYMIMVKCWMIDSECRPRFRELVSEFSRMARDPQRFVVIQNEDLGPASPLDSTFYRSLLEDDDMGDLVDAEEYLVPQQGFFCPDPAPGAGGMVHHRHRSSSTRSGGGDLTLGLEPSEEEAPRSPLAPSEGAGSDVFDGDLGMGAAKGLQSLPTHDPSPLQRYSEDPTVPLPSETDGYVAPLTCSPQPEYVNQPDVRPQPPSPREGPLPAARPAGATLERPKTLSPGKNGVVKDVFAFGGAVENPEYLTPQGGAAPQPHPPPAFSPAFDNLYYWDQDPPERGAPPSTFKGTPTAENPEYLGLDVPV
T1 sequence (Q15303 676-1308 limits assumed): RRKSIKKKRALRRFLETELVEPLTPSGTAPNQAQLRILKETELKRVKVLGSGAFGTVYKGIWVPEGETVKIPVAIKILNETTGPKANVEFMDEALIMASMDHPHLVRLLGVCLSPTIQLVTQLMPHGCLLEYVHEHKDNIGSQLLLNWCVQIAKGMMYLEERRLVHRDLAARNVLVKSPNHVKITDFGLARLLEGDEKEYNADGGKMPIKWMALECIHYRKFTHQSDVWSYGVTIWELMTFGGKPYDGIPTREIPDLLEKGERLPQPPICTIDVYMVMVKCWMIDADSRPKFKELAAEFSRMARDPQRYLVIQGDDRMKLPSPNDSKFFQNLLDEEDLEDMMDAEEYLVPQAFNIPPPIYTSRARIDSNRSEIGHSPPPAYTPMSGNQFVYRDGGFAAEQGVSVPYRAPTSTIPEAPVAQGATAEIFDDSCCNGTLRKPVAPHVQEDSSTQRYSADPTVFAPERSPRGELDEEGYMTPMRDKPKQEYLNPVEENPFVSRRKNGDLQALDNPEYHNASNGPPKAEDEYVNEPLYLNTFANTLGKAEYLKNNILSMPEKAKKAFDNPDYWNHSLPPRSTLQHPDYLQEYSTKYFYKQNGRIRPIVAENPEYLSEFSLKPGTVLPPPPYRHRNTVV

In the case of NC(=O)[C@@H]1CCCN1Cc1ccc(-c2ccc3ncnc(Nc4ccc5c(cnn5Cc5ccccc5)c4)c3c2)o1 [Example 18, (S)-1-(5-(4-(1-Benzyl-1H-indazol-5-ylamino)-quinazolin-6-yl)-furan-2-ylmethyl)-pyrrolidine-2-carboxylic acid amide dihydrochloride], the IC50 [1] is reported as 34 nM, the IC50 [2] is reported as > 50000 nM and the IC50 [3] is reported as 840 nM. It also gave an IC50 [4] of 45 nM, an IC50 [5] of 180 nM and a GI50 [6] of 9 nM. The IC50 [7] was 360 nM and the IC50 [8] was 2 nM.
Cc1nnc(-c2ccc3ncnc(Nc4ccc5c(cnn5Cc5ccccc5F)c4)c3c2)o1 [Example 21, (1-(2-Fluorobenzyl)-1H-indazol-5-yl)-(6-(5-methyl-1,3,4-oxadiazol-2-yl)-quinazolin-4-yl-amine hydrochloride] was tested, and the IC50 [2] was > 50000 nM, the IC50 [4] was 9 nM and the IC50 [9, 10] was 28 nM. It also gave a GI50 [6] of 2300 nM.
c1ccc(COc2ccc(Nc3ncnc4ccc(-c5ccc(C6OCCO6)o5)cc34)cc2)cc1 [Example 5] showed an IC50 [1] of 320 nM, an IC50 [2] of 19000 nM and an IC50 [3] of 1400 nM. It also gave an IC50 [4] of 20 nM, a GI50 [6] of 400 nM and an IC50 [7] of 780 nM.
For Cc1nnc(-c2ccc3ncnc(Nc4ccc(OCc5ccccc5F)c(Cl)c4)c3c2)o1 [Example 25, (3-Chloro-4-(2-fluoro-benzyloxy)-phenyl)-(6-(5-methyl-1,3,4-oxadiazol-2-yl)-s-quinazolin-4-yl)-amine hydrochloride], the IC50 [2] was > 50000 nM, the IC50 [4] was 15 nM and the IC50 [9, 10] was 22 nM. For the same compound, the GI50 [6] was 750 nM.
Compound C1=C(c2ccc3ncnc(Nc4ccc(OCc5ccccc5)cc4)c3c2)OCC1 [Example 7, (4-Benzyloxy-phenyl)-(6-(2,3-dihydrofuran-5-yl)-quinazolin-4-yl)-amine] has an IC50 [1] of 1500 nM, an IC50 [2] of 12000 nM and an IC50 [3] of 5500 nM. For the same compound, the IC50 [4] was 36 nM, the GI50 [6] was 1300 nM and the IC50 [7] was 4700 nM.
c1ccc(COc2ccc(Nc3ncnc4ccc(-c5cccs5)cc34)cc2)cc1 [Example 2, (4-Benzyloxy-phenyl)-(6-(thiophen-2-yl)-quinazolin-4-yl)-amine] was tested, and the IC50 [1] was 500 nM, the IC50 [2] was 8300 nM and the IC50 [3] was 26000 nM. The IC50 [4] was 21 nM, the GI50 [6] was 1000 nM and the IC50 [7] was 4600 nM.
In the case of Cc1nnc(-c2ccc3ncnc(Nc4ccc5c(cnn5Cc5cccc(F)c5)c4)c3c2)o1 [Example 22, (1-(3-Fluorobenzyl)-1H-indazol-5-yl)-(6-(5-methyl-1,3,4-oxadiazol-2-yl)-quinazolin-4-yl)-amine hydrochloride], the IC50 [2] is reported as 27000 nM, the IC50 [3] is reported as 910 nM and the IC50 [5] is reported as 600 nM. For the same compound, the IC50 [9, 10] was 8 nM, the GI50 [6] was 430 nM and the IC50 [7] was 2200 nM. For the same compound, the IC50 [8] was 97 nM.
In the case of Cc1nnc(-c2ccc3ncnc(Nc4ccc5c(cnn5Cc5cccc(F)c5F)c4)c3c2)o1 [Example 24, (1-(2,3-Difluorobenzyl)-1H-indazol-5-yl)-(6-(5-methyl-1,3,4-oxadiazol-2-yl)quinazolin-4-yl)-amine hydrochloride], the IC50 [2] is reported as > 50000 nM, the IC50 [4] is reported as 2 nM and the IC50 [9, 10] is reported as 15 nM. For the same compound, the GI50 [6] was 17000 nM.
For Cc1nnc(-c2ccc3ncnc(Nc4ccc(OCc5ccccc5F)cc4)c3c2)o1 [Example 28, (4-(2-Fluoro-benzyloxy)-phenyl)-(6-(5-methyl-1,3,4-oxadiazol-2-yl)-quinazolin-4-yl)-amine hydrochloride], the IC50 [2] was > 50000 nM, the IC50 [4] was 7 nM and the IC50 [5] was 8200 nM. It also gave an IC50 [9, 10] of 50 nM and a GI50 [6] of 5300 nM.
In the case of c1ccc(Cn2ncc3cc(Nc4ncnc5ccc(-c6noc(Cc7cccnc7)n6)cc45)ccc32)cc1 [Example 62], the IC50 [2] is reported as 3700 nM, the IC50 [4] is reported as 100 nM and the IC50 [9, 10] is reported as 13 nM. For the same compound, the GI50 [6] was 500 nM.
For Cc1nnc(-c2ccc3ncnc(Nc4ccc(OCc5cccc(F)c5)c(Cl)c4)c3c2)o1 [Example 26, (3-Chloro-4-(3-fluoro-benzyloxy)-phenyl)-(6-(5-methyl-1,3,4-oxadiazol-2-yl)-quinazolin-4-yl)-amine hydrochloride], the IC50 [2] was > 50000 nM, the IC50 [4] was 7 nM and the IC50 [9, 10] was 18 nM. For the same compound, the GI50 [6] was 650 nM.
c1ccc(COc2ccc(Nc3ncnc4ccc(-c5ccc(CNCC6CCCO6)o5)cc34)cc2)cc1 (stereo not drawn) [Example 15, (4-Benzyloxy-phenyl)-(6-(5-(((tetrahydro-furan-2-ylmethyl)-amino)-methyl)-furan-2-yl)-quinazolin-4-yl)-amine hydrochloride] was tested, and the IC50 [1] was 2300 nM, the IC50 [2] was 3200 nM and the IC50 [4] was 50 nM. The IC50 [9, 10] was 540 nM and the GI50 [6] was 2600 nM.
Work on Cc1nnc(-c2ccc3ncnc(Nc4ccc(S(=O)(=O)c5ccccc5)cc4)c3c2)o1 [Example 30, (4-Benzenesulphonyl-phenyl)-(6-(5-methyl-1,3,4-oxadiazol-2-yl)-quinazolin-4-yl)-amine hydrochloride] yielded an IC50 [2] of 50000 nM, an IC50 [4] of 6 nM and an IC50 [9, 10] of 38 nM. For the same compound, the GI50 [6] was 5400 nM and the IC50 [7] was 18000 nM.
Cc1nnc(-c2ccc3ncnc(Nc4ccc(Oc5ccccc5)cc4)c3c2)o1 [Example 20, (4-Phenoxy-phenyl)-(6-(5-methyl-1,3,4-oxadiazol-2-yl)quinazolin-4-yl)-amine hydrochloride] was tested, and the IC50 [2] was > 50000 nM, the IC50 [4] was 3 nM and the IC50 [9, 10] was 140 nM. For the same compound, the GI50 [6] was 6200 nM.
Compound Cc1nnc(-c2ccc3ncnc(Nc4ccc(OCc5ccccc5)cc4)c3c2)o1 [Example 27, (4-Benzyloxy-phenyl)-(6-(5-methyl-1,3,4-oxadiazol-2-yl)-quinazolin-4-yl)-amine hydrochloride] has an IC50 [2] of 50000 nM, an IC50 [4] of 10 nM and an IC50 [9, 10] of 47 nM. The GI50 [6] was 6500 nM.
In the case of Cn1cncc1-c1ccc2ncnc(Nc3ccc4c(cnn4Cc4ccccc4)c3)c2c1 [Example 38, (1-Benzyl-1H-indazol-5-yl)-(6-(3-methyl-3H-imidazol-4-yl)-quinazolin-4-yl)-amine], the IC50 [1] is reported as 520 nM, the IC50 [4] is reported as 88 nM and the IC50 [9, 10] is reported as 140 nM.
Compound CCN(CCN(C)C)Cc1ccc(-c2ccc3ncnc(Nc4ccc(OCc5ccccc5)cc4)c3c2)o1 [Example 13, N-(5-(4-(4-Benzyloxy-phenylamino)-quinazolin-6-yl)-furan-2-ylmethyl)-N-ethyl-N′,N′-dimethyl-ethane-1,2-diamine] has an IC50 [1] of 2300 nM, an IC50 [2] of 2200 nM and an IC50 [4] of 350 nM. It also gave an IC50 [9, 10] of 300 nM and a GI50 [6] of 450 nM.
Cc1nnc(-c2ccc3ncnc(Nc4ccc5c(cnn5Cc5ccccn5)c4)c3c2)o1 [Example 23, (1-Pyridin-2-ylmethyl)-1H-indazol-5-yl)-(6-(5-methyl-1,3,4-oxadiazol-2-yl)-quinazolin-4-yl)-amine hydrochloride] was tested, and the IC50 [2] was > 50000 nM, the IC50 [4] was 1 nM and the IC50 [9, 10] was 32 nM. It also gave a GI50 [6] of 31000 nM.
For c1ccc(COc2ccc(Nc3ncnc4ccc(-c5ccc(CNc6cccnc6)o5)cc34)cc2)cc1 [Example 14, (4-Benzyloxy-phenyl)-(6-(5-(pyridin-3-ylaminomethyl)-furan-2-yl)quinazolin-4-yl)-amine], the IC50 [1] was 1200 nM, the IC50 [2] was 5000 nM and the IC50 [4] was 34 nM. For the same compound, the IC50 [9] was 200 nM and the GI50 [6] was 680 nM.
Compound CN1CCN(Cc2ccc(-c3ccc4ncnc(Nc5ccc(OCc6ccccc6)cc5)c4c3)o2)CC1 [Example 10] has an IC50 [1] of 780 nM, an IC50 [2] of 7100 nM and an IC50 [3] of 2100 nM. For the same compound, the IC50 [4] was 52 nM, the GI50 [6] was 1500 nM and the IC50 [7] was 2200 nM.
